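Five concentrations, 48 hours, 96-well plates. GI50 = concentration required for 50% inhibition of growth.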 Calls of active or inactive are those of the source. Cut-off read from the data, not from the text of the source: active = GI50 up to about 1.1 µM and inactive = higher.
Tests used:
Assay in all cases: NCI-60 cell line screen, 48 h
MOLT-4 = test system: MOLT-4
DU-145 = test system: DU-145
HOP-62 = test system: HOP-62
SF-539 = test system: SF-539
RXF 393 = test system: RXF 393
NCI-H226 = test system: NCI-H226
NCI/ADR-RES = test system: NCI/ADR-RES
K562 = test system: K562
HT-29 = test system: HT-29
SNB-19 = test system: SNB-19
TK-10 = test system: TK-10
EKVX = test system: EKVX
HOP-92 = test system: HOP-92
MCF7 = test system: MCF7
M14 = test system: M14
Hs-578T = test system: Hs-578T
OVCAR-4 = test system: OVCAR-4
OVCAR-5 = test system: OVCAR-5
Malme-3M = test system: Malme-3M
HCC 2998 = test system: HCC 2998

| Compound | GI50 (MOLT-4) | GI50 (DU-145) | GI50 (HOP-62) | GI50 (SF-539) | GI50 (RXF 393) | GI50 (NCI-H226) | GI50 (NCI/ADR-RES) | GI50 (K562) | GI50 (HT-29) | GI50 (SNB-19) | GI50 (TK-10) | GI50 (EKVX) | GI50 (HOP-92) | GI50 (MCF7) | GI50 (M14) | GI50 (Hs-578T) | GI50 (OVCAR-4) | GI50 (OVCAR-5) | GI50 (Malme-3M) | GI50 (HCC 2998) |
| --- | --- | --- | --- | --- | --- | --- | --- | --- | --- | --- | --- | --- | --- | --- | --- | --- | --- | --- | --- | --- |
| Brc1ccc2c3c1[C@@H]1O[C@@H]1c1cccc(c1-3)[C@@H]1O[C@H]21 | > 53 µM (inactive) | 24.9 µM (inactive) | 19.5 µM (inactive) | 2.32 µM (inactive) | 17.1 µM (inactive) | 39.7 µM (inactive) | 17.4 µM (inactive) | > 39.9 µM (inactive) | 17.6 µM (inactive) | 22.3 µM (inactive) | 41 µM (inactive) | 19.6 µM (inactive) | 20.9 µM (inactive) | 9.08 µM (inactive) | 14.5 µM (inactive) | 29.9 µM (inactive) | 17.9 µM (inactive) | 17.6 µM (inactive) | 18.6 µM (inactive) | – |
| COc1cccc(CCn2c(N)c(-c3ccccc3)c3ccc([N+](=O)[O-])cc3c2=O)c1 | 6.7 µM (inactive) | 13.7 µM (inactive) | 6.56 µM (inactive) | 2.51 µM (inactive) | – | 3.05 µM (inactive) | 1.9 µM (inactive) | 1.02 µM (active) | 10.6 µM (inactive) | 16 µM (inactive) | 2.07 µM (inactive) | 12.3 µM (inactive) | 10.3 µM (inactive) | 3.46 µM (inactive) | 11.2 µM (inactive) | 1.85 µM (inactive) | 1.79 µM (inactive) | 14.3 µM (inactive) | 14.2 µM (inactive) | 11.1 µM (inactive) |
| C=CCSc1nn(CC=C)cc2ncnc1-2 | > 100 µM (inactive) | > 100 µM (inactive) | > 100 µM (inactive) | > 100 µM (inactive) | > 100 µM (inactive) | > 100 µM (inactive) | > 100 µM (inactive) | > 100 µM (inactive) | > 100 µM (inactive) | > 100 µM (inactive) | > 100 µM (inactive) | > 100 µM (inactive) | – | > 100 µM (inactive) | > 100 µM (inactive) | > 100 µM (inactive) | – | > 100 µM (inactive) | – | – |
| N#Cc1ccc(OCc2nc3cc(C(F)(F)F)ccc3nc2-c2ccccc2)cc1 | 62.1 µM (inactive) | > 100 µM (inactive) | > 100 µM (inactive) | > 100 µM (inactive) | – | – | > 100 µM (inactive) | – | 7.93 µM (inactive) | > 100 µM (inactive) | > 100 µM (inactive) | 41.2 µM (inactive) | > 100 µM (inactive) | > 100 µM (inactive) | > 100 µM (inactive) | > 100 µM (inactive) | > 100 µM (inactive) | > 100 µM (inactive) | > 100 µM (inactive) | > 100 µM (inactive) |
| O=C(/C=C\c1ccc([N+](=O)[O-])cc1)c1ccccc(=O)c1O | 0.721 µM (active) | 2.11 µM (inactive) | 1.88 µM (inactive) | – | – | 1.65 µM (inactive) | 0.429 µM (active) | 0.92 µM (active) | 1.04 µM (active) | 4.65 µM (inactive) | 2.49 µM (inactive) | 1.81 µM (inactive) | 0.256 µM (active) | 0.277 µM (active) | 1.29 µM (inactive) | 3.88 µM (inactive) | 2.47 µM (inactive) | 2.55 µM (inactive) | 0.873 µM (active) | 1.29 µM (inactive) |
| C/C=C1\CC2C(=O)CCC2C2c3ccccc3OC12 (configuration not stated) | > 100 µM (inactive) | 0.0617 µM (active) | > 100 µM (inactive) | > 100 µM (inactive) | > 100 µM (inactive) | > 100 µM (inactive) | > 100 µM (inactive) | > 100 µM (inactive) | > 100 µM (inactive) | > 100 µM (inactive) | > 100 µM (inactive) | > 100 µM (inactive) | > 100 µM (inactive) | > 100 µM (inactive) | > 100 µM (inactive) | > 100 µM (inactive) | > 100 µM (inactive) | > 100 µM (inactive) | > 100 µM (inactive) | – |
| [N-]=[N+]=C(C(=O)N1CCCC1=O)S(=O)(=O)c1ccccc1 | 50.2 µM (inactive) | > 100 µM (inactive) | 58.6 µM (inactive) | 98.6 µM (inactive) | 70.6 µM (inactive) | – | > 100 µM (inactive) | 69.5 µM (inactive) | > 10 µM (inactive) | > 100 µM (inactive) | > 100 µM (inactive) | > 100 µM (inactive) | – | 32.7 µM (inactive) | 91.2 µM (inactive) | 29.4 µM (inactive) | – | – | 28.3 µM (inactive) | > 100 µM (inactive) |
| COc1ccccc1NC(=S)Nc1cccc(C)n1 | > 100 µM (inactive) | > 100 µM (inactive) | 43.6 µM (inactive) | > 100 µM (inactive) | > 100 µM (inactive) | 36.9 µM (inactive) | > 100 µM (inactive) | > 100 µM (inactive) | 45.3 µM (inactive) | > 100 µM (inactive) | > 100 µM (inactive) | 16.2 µM (inactive) | – | > 100 µM (inactive) | > 100 µM (inactive) | 37.2 µM (inactive) | > 100 µM (inactive) | > 100 µM (inactive) | 16.7 µM (inactive) | – |

From ChEMBL document CHEMBL1201862, “PubChem BioAssay data set” (2004)
